Test results reported in PMC10223284, “Category-Based Toxicokinetic Evaluations of Data-Poor Per- and Polyfluoroalkyl Substances (PFAS) using Gas Chromatography Coupled with Mass Spectrometry” (Toxics, 2023).
Several values for one entry are separate records, joined by “and”; a condition that tells them apart may be missing. Equal entries are not always repeated.

Key:
[1] = tested on: human plasma; assay: Chemical stability in plasma over the UC assay time course (T5hr/T1hr); settings: for Time 1 hr / Time 1 hr, Run-specific Avg: amount measured in plasma sample at 1 hr; for Time 1 hr / Time 5 hr: replicates A, B, C; for Time 1 hr / Time 1 hr, Run-specific Avg / Time 5 hr / Time 5 hr, Run-specific Avg: unit not given; for Time 1 hr, Run-specific Avg / Time 5 hr, Run-specific Avg: run average; for Time 5 hr / Time 5 hr, Run-specific Avg: amount measured in plasma sample at 5 hr; for Stability (T5hr/ T1hr), Run-specific Avg: average of one UC run; for % remaining_PPB: chemical remaining in plasma over the PPB assay time course, NS = no significant loss; for PPB_Stab_Fail: flag for stability failure in the plasma protein binding assay (1 = fail, 0 = pass); for Mean Stability: mean T5hr/T1hr ratio in plasma over all replicates/runs; for Fstable.Med: median fraction stable in plasma, UC assay Level4
[2] = tested on: human plasma; assay: Ultracentrifugation (UC) plasma protein binding assay, fraction unbound in plasma (fup); settings: for Aqueous Fraction / Aqueous Fraction, Run-specific Avg: amount measured in aqueous fraction after ultracentrifugation, unit not given; for Aqueous Fraction: replicates A, B, C; for Aqueous Fraction, Run-specific Avg: run average; for Fraction Unbound (fu), Run-specific Avg: average of one UC run; for Mean fu: fraction unbound in human plasma, ultracentrifugation, some values based on eLOQ; for Fup.Med: median fraction unbound in plasma; for Fup.Med / Fup.point: UC assay Level4; for Fup.point: point estimate of fraction unbound in plasma

SMILES	Time 1 hr [1]	Time 1 hr, Run-specific Avg [1]	Time 5 hr [1]	Time 5 hr, Run-specific Avg [1]	Stability (T5hr/ T1hr), Run-specific Avg [1]	% remaining_PPB [1] [%]	PPB_Stab_Fail [1]	Mean Stability [1]	Fstable.Med [1]	Aqueous Fraction [2]	Aqueous Fraction, Run-specific Avg [2]	Fraction Unbound (fu), Run-specific Avg [2]	Mean fu [2]	Fup.Med [2]	Fup.point [2]	Mean Fu ([2]; mean fraction unbound in human plasma over all UC replicates/runs)
NCC(F)(F)C(F)(F)C(F)(F)C(F)(F)C(F)(F)C(F)(F)F [1H,1H-Perfluoroheptylamine]	7913.09 and 7505.36 and 6518.71	7312.39	3934.26 and 4036.14 and 3821.62	3985.20	0.545	54	0	0.541	0.0946	488.915 and 403.165 and 617.709	503.26	0.13	0.129	0.129	0.121	–
NCC(F)(F)C(F)(F)C(F)(F)C(F)(F)C(F)(F)C(F)(F)C(F)(F)C(F)(F)F [1H,1H-Perfluorononylamine]	12346.8 and 12130.3 and 11151.5	11876.18	7604.95 and 6828.46 and 6766.48	7216.71	0.608	60	0	0.598	0.177	414.774 and 241.353 and 265.963	307.36	0.0431	0.043	0.0402	0.0359	–
C=C(C)C(=O)OCCC(F)(F)C(F)(F)C(F)(F)C(F)(F)C(F)(F)C(F)(F)F [6:2 Fluorotelomer methacrylate]	–	–	–	–	–	54	0	–	0.0566	–	–	–	0.21	0.102	0.0856	–
OCCC(F)(F)C(F)(F)C(F)(F)C(F)(F)C(F)(F)C(F)(F)C(F)(F)C(F)(F)F [8:2 Fluorotelomer alcohol]	10349.3 (2×) and 9635.91	10111.53	7909.09 and 8525.8 and 8231.76	8217.44	0.813	100	0	0.814	0.162	192.869 and 61.5201 and 158.809	137.73	0.017	0.0170	0.0168	0.0243	–
FC(F)(F)C(F)(F)CNCC(F)(F)C(F)(F)F [Bis(1H,1H-perfluoropropyl)amine]	11322.6 and 13421.7 and 13036.1	12593.46	11284.3 and 10114.7 and 8561.71	10699.45	0.850	–	0	0.799	0.999	403.75 and 491.531 and 501.978	465.75	0.05	0.0477	0.0412	0.0433	0.048
FC(F)(F)C(F)(F)C(F)(F)C(F)(F)C(F)(F)C(F)(F)CCS [DTXSID20379947]	–	–	–	–	–	0	1	–	–	–	–	–	–	–	–	–
